Assay results published in ChEMBL document CHEMBL1938249, “Synthesis, antimalarial activity, and structure-activity relationship of 7-(2-phenoxyethoxy)-4(1H)-quinolones” (J Med Chem, 2011).

Assays:
J774 [1] = assay: Antiproliferative against mouse J774 cells at < 20 uM after 72 hrs by Cell titer assay; format: cell-based; conditions: j774, 72 h
[2] = Cytotoxicity index, ratio of EC50 for mouse J774 cells to EC50 for chloroquine-, mefloquine, pyrimethamine-,atovaquone-resistant ring stage Plasmodium falciparum TM90-C2B; format: cell-based; conditions: read-out: Ratio EC50
J774 [3] = assay: Antiproliferative against mouse J774 cells after 72 hrs by Cell titer assay; format: cell-based; conditions: J774, 72 h
Plasmodium falciparum [4] = assay: Resistance ratio, ratio of EC50 for chloroquine-, mefloquine, pyrimethamine-,atovaquone-resistant ring stage Plasmodium falciparum TM90-C2B to EC50 for chloroquine-, pyrimethamine-resistant Plasmodium falciparum W2; format: functional
Plasmodium falciparum [5] = assay: Antimalarial activity against chloroquine-, mefloquine-, pyrimethamine-,atovaquone-resistant ring stage Plasmodium falciparum TM90-C2B infected in human A positive erythrocytes after 72 hrs by SYBR green 1-based fluorescence assay; format: functional, organism-based
Plasmodium falciparum [6] = assay: Antimalarial activity against chloroquine-, pyrimethamine-resistant ring stage Plasmodium falciparum W2 infected in human A positive erythrocytes after 72 hrs by SYBR green 1-based fluorescence assay; format: functional, organism-based; conditions: W2, 72 h

Compound | Activity (J774 [1]) | selectivity ratio [2] | EC50 (J774 [3]) [nM] | Ratio EC50 (Plasmodium falciparum [4]) | EC50 (Plasmodium falciparum [5]) [nM] | EC50 (Plasmodium falciparum [6]) [nM]
CCCCc1cc2c(=O)c(-c3ccc(C(F)(F)F)cc3F)c(C)[nH]c2cc1OCCOc1ccccc1 | Non-toxic | ≥ 100 | 19000 | 1.11 | 30.9 | 27.9
CCCCc1cc2c(=O)c(C(=O)OC)c[nH]c2cc1OCCOc1ccccc1 | Non-toxic | ≥ 100 | 46000 | 223 | 11.2 | 0.05
COC(=O)c1c[nH]c2cc(OC)c(Cl)cc2c1=O | Non-toxic | ≥ 100 | 37000 | 5.7 | 765 | 134
CCCCc1cc2c(=O)cc(C)[nH]c2cc1OCCOc1ccccc1 | Non-toxic | ≥ 100 | 28000 | 0.2 | 44.1 | 216
CCCCc1cc2c(=O)c(CC)c(C)[nH]c2cc1OCCOc1ccccc1 | Non-toxic | ≥ 100 | 1000 | 0.08 | 0.15 | 1.92
CCc1c(C)[nH]c2cc(OCCOc3ccccc3)ccc2c1=O | Non-toxic | ≥ 100 | 4000 | 0.79 | 71.3 | 104
CCc1c(C)[nH]c2cc(OCCOc3ccccc3)c(Cl)cc2c1=O | Non-toxic | ≥ 100 | > 28000 | 0.28 | 72.1 | 256
CCc1c(C)[nH]c2cc(OCCOc3ccccc3)c(Br)cc2c1=O | Non-toxic | ≥ 100 | > 25000 | 0.21 | 43.5 | 203
CCc1c(C)[nH]c2cc(OCCOc3ccccc3)c(C)cc2c1=O | Non-toxic | ≥ 100 | > 30000 | 0.11 | 27.7 | 255
CCc1c(C)[nH]c2cc(OCCOc3ccccc3)c(OC)cc2c1=O | Non-toxic | ≥ 100 | > 29000 | 0.11 | 19.5 | 184
CCc1c(C)[nH]c2cc(OCOC)c(Cl)cc2c1=O | Non-toxic | ≥ 100 | 19000 | 0.09 | 79.7 | 908
CCc1c(C)[nH]c2cc(OCCCO)c(Cl)cc2c1=O | Non-toxic | ≥ 100 |  | 0.09 | 776 | 8450
CCc1c(C)[nH]c2cc(OCCCOC(=O)C(CC)C(C)=O)c(Cl)cc2c1=O (stereo not given) | Non-toxic | ≥ 100 |  | 1 | 6130 | 6130
CCc1c(C)[nH]c2cc(OCCN3CCOCC3)c(Cl)cc2c1=O | Non-toxic | ≥ 100 |  | 0.14 | 726 | 5090
CCc1c(C)[nH]c2cc(OCCN(C)C)c(Cl)cc2c1=O | Non-toxic | ≥ 100 |  | 0.12 | 604 | 5050
CCc1c(C)[nH]c2cc(OCCCN3CCN(c4ccccc4)CC3)c(Cl)cc2c1=O | Non-toxic | ≥ 100 | > 23000 | 0.09 | 91.7 | 976
CCCCc1cc2c(=O)c(-c3ccccc3)c(C)[nH]c2cc1OCCOc1ccccc1 | Non-toxic | ≥ 100 | 23000 | 0.71 | 764 | 1070
CCCCc1cc2c(=O)c(-c3ccncc3)c(C)[nH]c2cc1OCCOc1ccccc1 | Non-toxic | ≥ 100 | 23000 | 0.32 | 1020 | 3150
CCCCc1cc2c(=O)c(-c3cccnc3)c(C)[nH]c2cc1OCCOc1ccccc1 | Non-toxic | ≥ 100 | 23000 | 0.44 | 588 | 1350
CCCCc1cc2c(=O)c(-c3ccc(C(F)(F)F)cc3)c(C)[nH]c2cc1OCCOc1ccccc1 | Non-toxic | ≥ 100 | 20000 | 4.82 | 2450 | 509
CCCCc1cc2c(=O)c(-c3ccc(OC(F)(F)F)cc3)c(C)[nH]c2cc1OCCOc1ccccc1 | Non-toxic | ≥ 100 | 20000 | 0.78 | 2510 | 3220
CCCCc1cc2c(=O)c(-c3cccc(Oc4ccc(F)cc4)c3)c(C)[nH]c2cc1OCCOc1ccccc1 | Non-toxic | ≥ 100 | 19000 | 0.72 | 1000 | 1390
CCCCc1cc2c(=O)c(-c3ccc(COc4ccc(OC(F)(F)F)cc4)cc3)c(C)[nH]c2cc1OCCOc1ccccc1 | Non-toxic | ≥ 100 | 16000 | 1 | 4050 | 4050
CCCCc1cc2c(=O)c(-c3ccc(Oc4ccc(OC(F)(F)F)cc4)cc3C)c(C)[nH]c2cc1OCCOc1ccccc1 | Non-toxic | ≥ 100 | 16000 | 8.12 | 475 | 58.5
CCCCc1cc2c(=O)c(-c3ccc(C(F)(F)F)cc3C)c(C)[nH]c2cc1OCCOc1ccccc1 | Non-toxic | ≥ 100 | 20000 | 1.95 | 140 | 71.8
CCCCc1cc2c(=O)c(-c3ccc(C)cc3C)c(C)[nH]c2cc1OCCOc1ccccc1 | Non-toxic | ≥ 100 | 22000 | 1.79 | 1630 | 907
CCCCc1cc2c(=O)c(-c3ccc(Cl)cc3C)c(C)[nH]c2cc1OCCOc1ccccc1 | Non-toxic | ≥ 100 | > 21000 | 7.89 | 542 | 68.7
CCCCc1cc2c(=O)c(-c3c(C)noc3C)c(C)[nH]c2cc1OCCOc1ccccc1 | Non-toxic | ≥ 100 | 22000 | 4.73 | 128 | 27
O=C1C(O)=C([C@H]2CC[C@H](c3ccc(Cl)cc3)CC2)C(=O)c2ccccc21 [ATOVAQUONE] |  |  |  |  | > 170 | 
